Experimental data as given in paper PMC5895798, “Allosteric regulation alters carrier domain translocation in pyruvate carboxylase” (Nature Communications, 2018).
Where two headings read alike, the source gives them in different places.

Experiments:
Type in all cases: biochemical
AnPC [1] = molecular target: T1, AnPC (Aspergillus nidulans, UniProt Q5B4R8); test: coupled malate dehydrogenase assay of pyruvate carboxylation, […] nm; conditions: read-out: + 0 mM acetyl coenzyme A / Ki
T1 construct: gene ANIA_04462; full length, N-terminal (His)9 tag, pET-17b, E. coli BL21(DE3) with BirA (biotinylated), 130 kDa subunit, tetramer
T1 sequence (Q5B4R8 1-1196): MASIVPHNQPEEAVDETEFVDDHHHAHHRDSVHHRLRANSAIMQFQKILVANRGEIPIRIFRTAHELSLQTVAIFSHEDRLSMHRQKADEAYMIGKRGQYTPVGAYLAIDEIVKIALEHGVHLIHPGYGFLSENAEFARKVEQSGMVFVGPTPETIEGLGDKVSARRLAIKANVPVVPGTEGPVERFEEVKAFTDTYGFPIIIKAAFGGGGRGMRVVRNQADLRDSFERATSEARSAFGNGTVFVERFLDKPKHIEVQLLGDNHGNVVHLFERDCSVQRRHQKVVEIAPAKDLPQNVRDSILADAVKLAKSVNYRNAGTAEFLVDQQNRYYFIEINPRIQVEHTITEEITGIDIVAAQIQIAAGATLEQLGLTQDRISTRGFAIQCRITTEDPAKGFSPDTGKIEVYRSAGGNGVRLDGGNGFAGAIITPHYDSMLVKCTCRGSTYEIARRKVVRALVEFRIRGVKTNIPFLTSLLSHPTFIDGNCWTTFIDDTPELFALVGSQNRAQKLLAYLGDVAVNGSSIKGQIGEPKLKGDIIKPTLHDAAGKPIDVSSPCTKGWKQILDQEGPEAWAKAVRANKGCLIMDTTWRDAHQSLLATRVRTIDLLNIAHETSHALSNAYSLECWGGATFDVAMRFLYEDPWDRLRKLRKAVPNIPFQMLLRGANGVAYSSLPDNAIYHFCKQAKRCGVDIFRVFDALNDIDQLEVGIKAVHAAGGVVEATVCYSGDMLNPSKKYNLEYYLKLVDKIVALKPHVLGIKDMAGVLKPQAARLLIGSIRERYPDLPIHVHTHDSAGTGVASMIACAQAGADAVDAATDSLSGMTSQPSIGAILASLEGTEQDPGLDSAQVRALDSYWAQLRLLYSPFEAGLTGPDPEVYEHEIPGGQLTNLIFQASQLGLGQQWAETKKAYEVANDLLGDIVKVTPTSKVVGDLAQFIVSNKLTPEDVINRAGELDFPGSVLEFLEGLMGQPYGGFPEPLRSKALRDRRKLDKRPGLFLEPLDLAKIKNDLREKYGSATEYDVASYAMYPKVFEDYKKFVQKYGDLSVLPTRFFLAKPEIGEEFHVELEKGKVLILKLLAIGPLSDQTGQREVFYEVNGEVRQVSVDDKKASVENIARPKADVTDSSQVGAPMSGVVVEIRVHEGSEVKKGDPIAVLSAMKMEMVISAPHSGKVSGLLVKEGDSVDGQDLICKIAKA

RePC [2] = molecular target: T2, RePC (Rhizobium etli, UniProt Q2K340); test: as above; conditions: read-out: + 0 mM acetyl coenzyme A / Ki
T2 construct: gene pyc; full length, N-terminal (His)9 tag, pET-17b, E. coli BL21(DE3) with BirA (biotinylated), 126 kDa subunit, homotetramer

RePC [3] = molecular target: T2, RePC; test: as above; conditions: hybrid tetramer population (hybrid A) of two co-expressed domain-inactivated mutants; no acetyl CoA; 25 mM NaHCO3, 2.5 mM MgATP, 12 mM pyruvate, pH 7.8, 25 °C; allosteric; read-out: + 0 mM acetyl coenzyme A / Ki
AnPC [4] = molecular target: T1, AnPC; test: shift of L-aspartate Ki in coupled assay; conditions: 0.1 mM acetyl CoA; competes with L-aspartate, no activation; pH 7.8, 25 °C

SMILES	Ki (AnPC [1])	Ki (RePC [2])	Ki (RePC [3])	shift of L-aspartate Ki in coupled assay (AnPC [4])
N[C@@H](CC(=O)O)C(=O)O [L-aspartate]	2.6 ± 0.1 mM	4.7 ± 0.7 mM	6.2 ± 0.5 mM	
CC(=O)SCCNC(=O)CCNC(=O)[C@H](O)C(C)(C)COP(=O)(O)OP(=O)(O)OC[C@H]1O[C@@H](n2cnc3c(N)ncnc32)[C@H](O)[C@@H]1OP(=O)(O)O [acetyl CoA]				This confirms that acetyl CoA does, indeed, bind to AnPC
